In brackets after ≈: the same amount, converted by molar mass.
Tested on: K562
Assay: Cytotoxicity against human K562 cells
Format: functional
Conditions: read-out: LC50 (the source's name)

| Compound | CC50 [µg/mL] |
| --- | --- |
| CC(=O)O[C@@H](C/C=C(\C)CC/C=C(\C)CC/C=C(\C)CC(=O)CC(C)C)c1ccoc1 | 31.6 (≈ 73.7 µM) |
| C/C(=C\CC/C(C)=C/C[C@H](O)c1ccoc1)CC/C=C(\C)CC(=O)CC(C)C | 3 (≈ 7.76 µM) |
| CC(=O)OC[C@]12CCCC(C)(C)[C@@H]1CC[C@@]1(C)[C@@H]3CC=C4C(=O)O[C@@H](OC(C)=O)[C@@H]4[C@@]3(C)CC[C@@H]12 | 11.2 (≈ 23 µM) |
| CC(=O)O[C@@H]1OC=C2[C@@H](OC(C)=O)C[C@@H]3[C@](C)(CC[C@H]4[C@@]3(C)CC[C@H]3C(C)(C)CCC[C@@]34CO)[C@H]21 | 0.02 (≈ 0.0409 µM) |
| CC(=O)OC[C@]12CCCC(C)(C)[C@@H]1CC[C@@]1(C)[C@@H]3CC=C4C(=O)O[C@@H](O)[C@@H]4[C@@]3(C)CC[C@@H]12 | 4.9 (≈ 11 µM) |
